Test results as given in PubChem BioAssay (NCI).
Values joined by “and” are separate entries in the source; they are usually repeats but may differ in a detail not shown here. Identical values can stand only once.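 Results reflect a 48-hour exposure of cells in 96-well plates to compound at five concentrations. At the GI50, growth is halved. TGI denotes the concentration required for complete inhibition of growth.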

How the values were obtained:
Assay in all cases: DTP human tumour cell line panel, 48 h
[1] = test system: K-562 leukemia
[2] = test system: HOP-92 NSCLC
[3] = test system: DU-145 prostate
[4] = test system: SK-OV-3 ovarian
[5] = test system: HL-60(TB) leukemia
[6] = test system: MCF7 breast
[7] = test system: M14 melanoma
[8] = test system: 786-0 renal
[9] = test system: SNB-19 CNS
[10] = test system: SK-MEL-5 melanoma

SMILES	GI50 [1]	TGI [1]	GI50 [2]	TGI [2]	GI50 [3]	TGI [3]	GI50 [4]	TGI [4]	GI50 [5]	TGI [5]	GI50 [6]	TGI [6]	GI50 [7]	TGI [7]	GI50 [8]	TGI [8]	GI50 [9]	TGI [9]	GI50 [10]	TGI [10]
O=C(Nc1ccc(-c2ccnc(Nc3ccc(N4CCOCC4)cc3)n2)cc1)C1CCCN1 (stereo not drawn)	2 µM	> 53.3 µM	4.1 µM	24.4 µM	7.14 µM	37.4 µM	11.8 µM	32.8 µM	4.5 µM	25.5 µM	4.51 µM	21.4 µM	7.23 µM	22.8 µM	4.94 µM	20.2 µM	18 µM	64.7 µM	3.31 µM	18.9 µM
CC(C)(O)CCC(O)C(C)(O)C1CCC2(O)C3=CC(=O)C4(O)CC(O)C(O)CC4(C)C3CCC12C (stereo not drawn) (tested in a mixture with another compound)	–	> 100 µM	–	> 100 µM	–	> 100 µM	–	> 100 µM	–	> 100 µM	–	> 100 µM	–	> 100 µM	–	> 100 µM	–	> 100 µM	–	> 100 µM
COc1ccc(S(=O)(=O)n2c3ccccc3n3ncc(-c4nnc(C)o4)c23)cc1	0.314 µM	> 100 µM	0.365 µM	57.3 µM	0.916 µM	> 75.3 µM	0.598 µM	> 100 µM	0.273 µM	0.841 µM	0.397 µM	> 69.8 µM	0.373 µM	18.7 µM	0.688 µM	> 71.3 µM	0.766 µM	> 100 µM	0.401 µM	15 µM
S=c1[nH]nc(SCc2ccccc2Cl)c2[nH]cnc12	–	> 100 µM	–	> 100 µM	–	> 100 µM	–	> 100 µM	–	> 100 µM	–	> 100 µM	–	> 100 µM	–	> 100 µM	–	> 100 µM	–	> 100 µM
CC(C)=CCC/C(C)=C/[C@H]1OC(=O)CC12C[C@H](O)C=CC2=O (stereo partly drawn)	0.363 µM	> 100 µM	1.21 µM	3.06 µM	0.529 µM	2.18 µM	1.44 µM	3.19 µM	0.323 µM	1.11 µM	0.421 µM	1.29 µM	0.32 µM	0.833 µM	0.727 µM	1.93 µM	1.36 µM	2.64 µM	1.35 µM	3.17 µM
Cc1ccc(S(=O)(=O)c2ccsc2N)cc1	> 100 µM	> 100 µM	73.9 µM	> 100 µM	> 100 µM	> 100 µM	> 100 µM	> 100 µM	> 100 µM	> 100 µM	> 100 µM	> 100 µM	> 100 µM	> 100 µM	> 100 µM	> 100 µM	> 100 µM	> 100 µM	66 µM	> 100 µM
C[C@H]1CCC/C=C/[C@@H]2C[C@H](O)C[C@H]2[C@H](O)[C@@H](SC2OC(CO)C(O)C(O)C2O)CC(=O)O1 (stereo partly drawn)	> 100 µM	> 100 µM	> 100 µM	> 100 µM	> 100 µM	> 100 µM	> 100 µM	> 100 µM	> 100 µM	> 100 µM	35.1 µM	> 100 µM	61.3 µM	> 100 µM	25.1 µM	59.9 µM	> 100 µM	> 100 µM	16.2 µM	30 µM
O=C(c1ccccc1)c1ccccc1C(=O)c1ccccc1	41 µM	> 100 µM	16.4 µM	99.4 µM	88.1 µM	> 100 µM	50.3 µM	> 100 µM	53.7 µM	> 100 µM	1.76 µM	10.9 µM	31.9 µM	> 100 µM	50.6 µM	> 100 µM	> 100 µM	> 100 µM	22.5 µM	67.1 µM
O=C1NC(O)CCN1C1CC(O)C(CO)O1 (stereo not drawn)	–	> 100 µM	–	> 100 µM	–	> 100 µM	–	> 100 µM	–	> 100 µM	–	> 100 µM	–	> 100 µM	–	> 100 µM	–	> 100 µM	–	> 100 µM
Cc1nc2sc(C(=O)Nc3cccc(Cl)c3C)c(N)c2cc1C(C)O (stereo not drawn)	0.0459 µM	> 38.5 µM	4.36 µM	53.4 µM	0.329 µM	> 86.5 µM	0.382 µM	> 61 µM	0.092 µM	–	0.103 µM	> 53.2 µM	0.341 µM	> 100 µM	0.449 µM	> 49.2 µM	0.293 µM	> 100 µM	0.26 µM	15.6 µM
O=[N+]([O-])c1ccc(NC(=S)N/N=C(\c2ccccc2)c2ccccn2)cc1	0.00498 µM	2.41 µM and 3.82 µM	1.32 µM	3.39 µM and 2.6 µM	–	2.84 µM and 4.03 µM	2.28 µM	4.09 µM and 2.95 µM	1.59 µM	4.32 µM and > 20.4 µM	0.0393 µM	1.55 µM and 2.75 µM	1.38 µM	2.33 µM and 2.77 µM	1.01 µM	2.17 µM and 2.49 µM	–	3.12 µM and 2.97 µM	–	2.53 µM and 2.74 µM
COc1cc(N=Nc2cccc(S(N)(=O)=O)c2)c2ccccc2c1N	–	37.7 µM	–	> 58 µM	–	3.43 µM	–	30.7 µM	–	23.6 µM	–	20.5 µM	–	3.43 µM	–	26.9 µM	–	42.2 µM	–	3.3 µM
Cn1c(O)c(N=NC(N)=S)c2ccccc21	95.2 µM	> 100 µM	88 µM	> 100 µM	53.7 µM	> 100 µM	66.8 µM	> 100 µM	37.9 µM	> 100 µM	20.3 µM	> 100 µM	95.9 µM	> 100 µM	58.7 µM	> 100 µM	> 100 µM	> 100 µM	38.1 µM	> 100 µM
O=C(Nc1cccc([N+](=O)[O-])c1)c1cc2ccccc2cc1O	0.845 µM	11 µM	0.422 µM	4.41 µM	3.09 µM	> 49.6 µM	1.84 µM	6.07 µM	0.59 µM	3.03 µM	1.36 µM	6.21 µM	1.58 µM	6.68 µM	1.28 µM	4.74 µM	2.93 µM	> 100 µM	1.14 µM	3.56 µM
CN1N=Nc2c(C(F)(F)F)nn(-c3ccccc3)c2N(C)C1=O	> 56.4 µM	> 100 µM	> 100 µM	> 100 µM	> 100 µM	> 100 µM	> 100 µM	> 100 µM	> 32 µM	> 52.7 µM	> 100 µM	> 100 µM	> 100 µM	> 100 µM	> 100 µM	> 100 µM	> 100 µM	> 100 µM	> 100 µM	> 100 µM
Cc1cc(Cl)ccc1NC(=O)NC(C)(C)COC(=O)Nc1cccc(Cl)c1	5.09 µM	> 100 µM	3.48 µM	26.4 µM	11.2 µM	> 100 µM	22.5 µM	96 µM	9.71 µM	71.9 µM	2.49 µM	24.4 µM	8.38 µM	> 100 µM	24.2 µM	> 100 µM	5.57 µM	> 100 µM	6.7 µM	25 µM
N#Cc1ncc(N2C(=O)C3(CCC3)N(c3ccc(OC4CCNCC4)nc3)C2=S)cc1C(F)(F)F	5.84 µM	34.4 µM	1.11 µM	10.5 µM	18.8 µM	41.1 µM	60.5 µM	> 100 µM	12.1 µM	33.9 µM	11.5 µM	26.4 µM	7.31 µM	20.6 µM	13.6 µM	26.8 µM	36.8 µM	> 100 µM	17.2 µM	32 µM
C=C1C[C@@H]2[C@H](CC[C@]3(C)C(=O)CC[C@@H]23)[C@@]2(C)C=CC(=O)C=C12	> 59.8 µM	> 100 µM	> 100 µM	> 100 µM	> 65.8 µM	> 100 µM	39.1 µM	> 100 µM	26 µM	> 63.4 µM	14.6 µM	> 62.2 µM	20.4 µM	> 48.7 µM	36.9 µM	> 100 µM	> 58.8 µM	> 100 µM	7.5 µM	33.7 µM
CC1(C)N=C(N)N=C(N)N1c1ccc(OCCCCNC(=O)c2ccc(S(=O)(=O)F)cc2)c(Cl)c1	0.562 µM	> 100 µM	> 100 µM	> 100 µM	8.16 µM	> 100 µM	> 100 µM	> 100 µM	1.84 µM	> 100 µM	3.9 µM	> 100 µM	8.89 µM	> 100 µM	5.72 µM	> 100 µM	13.6 µM	> 100 µM	5.19 µM	> 100 µM
Cc1c(N)nc(C(CC(N)=O)NCC(N)C(N)=O)nc1C(=O)NC(C(=O)NC(C)C(O)C(C)C(=O)NC(C(=O)NCCc1nc(-c2nc(C(=O)NCCCNCCCCN)cs2)cs1)C(C)O)C(OC1OC(CO)C(O)C(O)C1OC1OC(CO)C(O)C(OC(N)=O)C1O)c1cnc[nH]1 (stereo not drawn)	29.2 µg/mL	> 10 µM	3.38 µg/mL	–	2.17 µg/mL and 11.3 µg/mL	48 µg/mL	8.67 µg/mL	> 10 µM	11.8 µg/mL	–	3.08 µg/mL	–	9.31 µg/mL	> 10 µM	0.895 µg/mL and 0.562 µg/mL	19.4 µg/mL and > 10 µM	8.2 µg/mL and 29.7 µg/mL	> 10 µM	1.05 µg/mL and 0.164 µg/mL	15.9 µg/mL and > 10 µM
COc1cc(/C=C/c2cc(/C=C/c3ccc(O)c(OC)c3)[nH]c(=O)n2)ccc1O	3.66 µM	35.8 µM	2.28 µM	9.24 µM	4.91 µM	35.4 µM	2.33 µM	4.89 µM	3.74 µM	12.1 µM	2.96 µM	11.4 µM	3.12 µM	15.4 µM	2.73 µM	33 µM	3.38 µM	> 100 µM	3.7 µM	36.1 µM
Cc1[nH]n(-c2ccccc2)c(=O)c1C(=O)c1ccccc1	> 21.3 µM	> 25 µM	> 10.6 µM	> 25 µM	> 25 µM	> 25 µM	> 25 µM	> 25 µM	> 25 µM	> 25 µM	> 25 µM	> 25 µM	> 25 µM	> 25 µM	> 25 µM	> 25 µM	> 15.7 µM	> 25 µM	> 25 µM	> 25 µM
O=c1[nH]cnc2nc(-c3ccc(N(CCCl)CCCl)cc3)[nH]c12	1.9 µM	> 100 µM	17.8 µM	> 100 µM	15.9 µM	> 100 µM	5.17 µM	42.8 µM	> 100 µM	> 100 µM	> 100 µM	> 100 µM	4.97 µM	> 100 µM	18.3 µM	53.2 µM	19.3 µM	> 100 µM	3.47 µM	> 100 µM
C[C@H]1CC2=CC(=O)CC[C@]2(C)[C@H]2CC[C@@]3(C)[C@@H](CC[C@]3(C)O)[C@H]12	24.7 µM	> 88.1 µM	8.66 µM	44.3 µM	45.7 µM	> 96.3 µM	39.4 µM	> 100 µM	12.9 µM	36.8 µM	24.9 µM	> 76.7 µM	27.2 µM	> 78.9 µM	42.5 µM	> 100 µM	43.3 µM	> 100 µM	14.8 µM	33.3 µM
COc1cc(CC2CC(c3ccc4c(c3)OCO4)OC2=O)cc(OC)c1OC (stereo not drawn)	–	> 100 µM	–	> 100 µM	–	> 100 µM	–	> 100 µM	–	> 100 µM	–	> 100 µM	–	> 100 µM	–	> 100 µM	–	> 100 µM	–	> 100 µM
COc1cc(/C=C\c2cc(OC)c(OC)c(OC)c2)cc(NS(=O)(=O)c2cccc(Cl)c2)c1OC	0.0383 µM	> 100 µM	0.0715 µM	> 100 µM	0.0676 µM	> 100 µM	1.15 µM	> 100 µM	0.032 µM	> 100 µM	0.0533 µM	> 100 µM	0.0344 µM	> 100 µM	0.0601 µM	> 100 µM	0.214 µM	> 100 µM	0.229 µM	0.519 µM
